Experimental data from patent publication US20070049593A1 (priority 2004, published 2007).
Counter-ions that a name gives are not always drawn.

What follows are compounds tested against T1, HCV polymerase (Hepatitis C virus genotype 1b, UniProt P26663) (assay: biochemical).
T1 construct: a region encoding NS5B (J Virol 1991 March, 65(3), 1105-13, 544 amino acids after deletion of 47 amino acids on the C-terminal); 6xHis (C); made in house; host or cells: Escherichia coli
T1 sequence (P26663 2420-2963): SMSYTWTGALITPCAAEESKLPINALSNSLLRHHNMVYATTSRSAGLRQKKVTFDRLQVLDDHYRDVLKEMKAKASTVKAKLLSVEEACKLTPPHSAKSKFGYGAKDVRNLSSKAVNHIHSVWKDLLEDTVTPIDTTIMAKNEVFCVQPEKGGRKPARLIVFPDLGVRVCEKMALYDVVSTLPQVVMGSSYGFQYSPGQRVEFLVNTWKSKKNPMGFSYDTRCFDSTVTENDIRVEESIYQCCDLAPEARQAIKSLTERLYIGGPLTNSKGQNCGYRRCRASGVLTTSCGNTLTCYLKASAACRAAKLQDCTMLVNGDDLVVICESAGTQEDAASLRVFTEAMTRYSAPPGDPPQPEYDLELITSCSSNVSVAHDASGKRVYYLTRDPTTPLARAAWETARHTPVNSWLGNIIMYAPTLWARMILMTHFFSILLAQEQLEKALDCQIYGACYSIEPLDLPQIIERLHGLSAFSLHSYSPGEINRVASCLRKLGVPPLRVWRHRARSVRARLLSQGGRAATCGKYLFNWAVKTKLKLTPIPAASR
Design: species or system HCV BK strain
How it was run: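 His-tagged NS5B (BK strain, 47-aa C-terminal deletion, E. coli-expressed) at 0.5 μg/ml copied 5 μg/ml run-off RNA bearing the HCV 3′ UTR with 2 μM UTP plus [3H]UTP, 50 μM ATP/GTP, in pH 7.5 Tris with 5 mM MgCl2, 25 °C, 90 min. TCA-precipitated RNA was counted and IC50 calculated.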
Compound `CC1CCCN(CCN2CCn3c(c(C4CCCCC4)c4ccc(C(=O)O)cc43)-c3ccc(C(C)C)cc32)C1` (stereo not shown) [Example 1-340, 13-cyclohexyl-3-isopropyl-5-[2-(3-methylpiperidin-1-yl)ethyl]-6,7-dihydro-5H-benzo[5,6][1,4]diazepino[7,1-a]indole-10-carboxylic acid dihydrochloride] has an IC50 of less than 100 nM.
For `CCC1CCCN(CCN2CCn3c(c(C4CCCCC4)c4ccc(C(=O)O)cc43)-c3ccc(C(C)C)cc32)C1` (stereo not shown) [Example 1-341, 13-cyclohexyl-5-[2-(3-ethylpiperidin-1-yl)ethyl]-3-isopropyl-6,7-dihydro-5H-benzo[5,6][1,4]diazepino[7,1-a]indole-10-carboxylic acid dihydrochloride], the IC50 was less than 100 nM.
Work on `O=C(O)c1ccc2c(C3CCCCC3)c3n(c2c1)CCN(CCC1CCCN(C2CC2)C1)c1cc(Cl)ccc1-3` (stereo not shown) [Example 1-342, 3-chloro-13-cyclohexyl-5-[2-(1-cyclopropylpiperidin-3-yl)ethyl]-6,7-dihydro-5H-benzo[5,6][1,4]diazepino[7,1-a]indole-10-carboxylic acid dihydrochloride] yielded an IC50 of less than 100 nM.
Work on `CCCc1ccc2c(c1)N(CCN1CCCCC1)CCn1c-2c(C2CCCCC2)c2ccc(C(=O)O)cc21` [Example 1-343, 13-cyclohexyl-5-[2-(piperidin-1-yl)ethyl]-3-propyl-6,7-dihydro-5H-benzo[5,6][1,4]diazepino[7,1-a]indole-10-carboxylic acid dihydrochloride] yielded an IC50 of less than 100 nM.
`Cc1cc(COc2ccc3c(c2)N(CC[N+](C)(C)Cc2cc(C)on2)CCn2c-3c(C3CCCCC3)c3ccc(C(=O)O)cc32)no1` [Example 1-344, N-{2-[10-carboxy-13-cyclohexyl-3-(5-methylisoxazol-3-ylmethoxy)-6,7-dihydro-benzo[5,6][1,4]diazepino[7,1-a]indol-5-yl]ethyl}-N,N-dimethyl-N-(5-methylisoxazol-3-ylmethyl)ammonium chloride monohydrochloride] showed an IC50 of less than 100 nM.
With `CCOc1ccc2c(c1)N(CCN1CCCC(C)C1)CCn1c-2c(C2CCCCC2)c2ccc(C(=O)O)cc21` (stereo not shown) [Example 1-345, 13-cyclohexyl-3-ethoxy-5-[2-(3-methylpiperidin-1-yl)ethyl]-6,7-dihydro-5H-benzo[5,6][1,4]diazepino[7,1-a]indole-10-carboxylic acid dihydrochloride] the IC50 was less than 100 nM.
Work on `CCCc1ccc2c(c1)N(CCN1CCCC(COC)C1)CCn1c-2c(C2CCCCC2)c2ccc(C(=O)O)cc21` (stereo not shown) [Example 1-346, 13-cyclohexyl-5-[2-(3-methoxymethylpiperidin-1-yl)ethyl]-3-propyl-6,7-dihydro-5H-benzo[5,6][1,4]diazepino[7,1-a]indole-10-carboxylic acid dihydrochloride] yielded an IC50 of less than 100 nM.
`CCOc1ccc2c(c1)N(CCN1CCCC(CC)C1)CCn1c-2c(C2CCCCC2)c2ccc(C(=O)O)cc21` (stereo not shown) [Example 1-347, 13-cyclohexyl-3-ethoxy-5-[2-(3-ethylpiperidin-1-yl)ethyl]-6,7-dihydro-5H-benzo[5,6][1,4]diazepino[7,1-a]indole-10-carboxylic acid dihydrochloride] gave an IC50 of less than 100 nM.
In the case of `CCC1CCCN(CCN2CCn3c(c(C4CCCCC4)c4ccc(C(=O)O)cc43)-c3ccc(OCc4ccccc4)cc32)C1` (stereo not shown) [Example 1-348, 3-benzyloxy-13-cyclohexyl-5-[2-(3-ethylpiperidin-1-yl)ethyl]-6,7-dihydro-5H-benzo[5,6][1,4]diazepino[7,1-a]indole-10-carboxylic acid dihydrochloride], the IC50 is reported as less than 100 nM.
With `CCOc1ccc2c(c1)N(CCC1CCCN(C(C)C)C1)CCn1c-2c(C2CCCCC2)c2ccc(C(=O)O)cc21` (stereo not shown) [Example 1-349, 13-cyclohexyl-3-ethoxy-5-[2-(1-isopropylpiperidin-3-yl)ethyl]-6,7-dihydro-5H-benzo[5,6][1,4]diazepino[7,1-a]indole-10-carboxylic acid dihydrochloride] the IC50 was less than 100 nM.
`CCc1ccc2c(c1)N(CCN1CCCC(CC)C1)CCn1c-2c(C2CCCCC2)c2ccc(C(=O)O)cc21` (stereo not shown) [Example 1-350, 13-cyclohexyl-3-ethyl-5-[2-(3-ethylpiperidin-1-yl)ethyl]-6,7-dihydro-5H-benzo[5,6][1,4]diazepino[7,1-a]indole-10-carboxylic acid dihydrochloride] was tested, and the IC50 was less than 100 nM.
Work on `CC(C)C1CCCN(CCN2CCn3c(c(C4CCCCC4)c4ccc(C(=O)O)cc43)-c3ccc(Cl)cc32)C1` (stereo not shown) [Example 1-351, 3-chloro-13-cyclohexyl-5-[2-(3-isopropylpiperidin-1-yl)ethyl]-6,7-dihydro-5H-benzo[5,6][1,4]diazepino[7,1-a]indole-10-carboxylic acid dihydrochloride] yielded an IC50 of less than 100 nM.
In the case of `COCC1CCCN(CCCN2CCn3c(c(C4CCCCC4)c4ccc(C(=O)O)cc43)-c3ccc(Cl)cc32)C1` (stereo not shown) [Example 1-352, 3-chloro-13-cyclohexyl-5-[3-(3-methoxymethylpiperidin-1-yl)propyl]-6,7-dihydro-5H-benzo[5,6][1,4]diazepino[7,1-a]indole-10-carboxylic acid monohydrochloride], the IC50 is reported as less than 100 nM.
Work on `CCC1CCCCN1CCCN1CCn2c(c(C3CCCCC3)c3ccc(C(=O)O)cc32)-c2ccc(Cl)cc21` (stereo not shown) [Example 1-353, 3-chloro-13-cyclohexyl-5-[3-(2-ethylpiperidin-1-yl)propyl]-6,7-dihydro-5H-benzo[5,6][1,4]diazepino[7,1-a]indole-10-carboxylic acid dihydrochloride] yielded an IC50 of less than 100 nM.
`CCCc1ccc2c(c1)N(CCC1CCCN(C(C)C)C1)CCn1c-2c(C2CCCCC2)c2ccc(C(=O)O)cc21` (stereo not shown) [Example 1-354, 13-cyclohexyl-5-[2-(1-isopropylpiperidin-3-yl)ethyl]-3-propyl-6,7-dihydro-5H-benzo[5,6][1,4]diazepino[7,1-a]indole-10-carboxylic acid dihydrochloride] gave an IC50 of less than 100 nM.
`COCC1CCCCN1CCCN1CCn2c(c(C3CCCCC3)c3ccc(C(=O)O)cc32)-c2ccc(Cl)cc21` (stereo not shown) [Example 1-355, 3-chloro-13-cyclohexyl-5-[3-(2-methoxymethylpiperidin-1-yl)propyl]-6,7-dihydro-5H-benzo[5,6][1,4]diazepino[7,1-a]indole-10-carboxylic acid dihydrochloride] was tested, and the IC50 was less than 100 nM.
`CCCc1ccc2c(c1)N(CCN1CCCC(C)C1)CCn1c-2c(C2CCCCC2)c2ccc(C(=O)O)cc21` (stereo not shown) [Example 1-356, 13-cyclohexyl-5-[2-(3-methylpiperidin-1-yl)ethyl]-3-propyl-6,7-dihydro-5H-benzo[5,6][1,4]diazepino[7,1-a]indole-10-carboxylic acid dihydrochloride] showed an IC50 of less than 100 nM.
`CCCc1ccc2c(c1)N(CCN1CCCC(CC)C1)CCn1c-2c(C2CCCCC2)c2ccc(C(=O)O)cc21` (stereo not shown) [Example 1-357, 13-cyclohexyl-5-[2-(3-ethylpiperidin-1-yl)ethyl]-3-propyl-6,7-dihydro-5H-benzo[5,6][1,4]diazepino[7,1-a]indole-10-carboxylic acid dihydrochloride] gave an IC50 of less than 100 nM.
Work on `COCC1CCCN(CCN2CCn3c(c(C4CCCCC4)c4ccc(C(=O)O)cc43)-c3ccc(OCc4ccccc4)cc32)C1` (stereo not shown) [Example 1-358, 3-benzyloxy-13-cyclohexyl-5-[2-(3-methoxymethylpiperidin-1-yl)ethyl]-6,7-dihydro-5H-benzo[5,6][1,4]diazepino[7,1-a]indole-10-carboxylic acid dihydrochloride] yielded an IC50 of less than 100 nM.
Work on `CC(C)c1ccc2c(c1)N(CCN1CCCC1)CCn1c-2c(C2CCCCC2)c2ccc(C(=O)O)cc21` [Example 1-359, 13-cyclohexyl-3-isopropyl-5-[2-(pyrrolidin-1-yl)ethyl]-6,7-dihydro-5H-benzo[5,6][1,4]diazepino[7,1-a]indole-10-carboxylic acid monohydrochloride] yielded an IC50 of less than 100 nM.
Compound `CCc1ccc2c(c1)N(CCN1CCCC1)CCn1c-2c(C2CCCCC2)c2ccc(C(=O)O)cc21` [Example 1-360, 13-cyclohexyl-3-ethyl-5-[2-(pyrrolidin-1-yl)ethyl]-6,7-dihydro-5H-benzo[5,6][1,4]diazepino[7,1-a]indole-10-carboxylic acid monohydrochloride] has an IC50 of less than 100 nM.
`CC1CCCN(CCN2CCn3c(c(C4CCCCC4)c4ccc(C(=O)O)cc43)-c3ccc(OCc4ccccc4)cc32)C1` (stereo not shown) [Example 1-361, 3-benzyloxy-13-cyclohexyl-5-[2-(3-methylpiperidin-1-yl)ethyl]-6,7-dihydro-5H-benzo[5,6][1,4]diazepino[7,1-a]indole-10-carboxylic acid dihydrochloride] gave an IC50 of less than 100 nM.
Work on `CC(C)N1CCCC(CCN2CCn3c(c(C4CCCCC4)c4ccc(C(=O)O)cc43)-c3ccc(OCc4ccccc4)cc32)C1` (stereo not shown) [Example 1-362, 3-benzyloxy-13-cyclohexyl-5-[2-(1-isopropylpiperidin-3-yl)ethyl]-6,7-dihydro-5H-benzo[5,6][1,4]diazepino[7,1-a]indole-10-carboxylic acid dihydrochloride] yielded an IC50 of less than 100 nM.
`Cc1cc(COc2ccc3c(c2)N(CCN2CCCCC2)CCn2c-3c(C3CCCCC3)c3ccc(C(=O)O)cc32)no1` [Example 1-363, 13-cyclohexyl-3-(5-methylisoxazol-3-ylmethoxy)-5-[2-(piperidin-1-yl)ethyl]-6,7-dihydro-5H-benzo[5,6][1,4]diazepino[7,1-a]indole-10-carboxylic acid dihydrochloride] showed an IC50 of less than 100 nM.
`CC(C)C1CCCN(CCN2CCn3c(c(C4CCCCC4)c4ccc(C(=O)O)cc43)-c3ccccc32)C1` (stereo not shown) [Example 1-364, 13-cyclohexyl-5-[2-(3-isopropylpiperidin-1-yl)ethyl]-6,7-dihydro-5H-benzo[5,6][1,4]diazepino[7,1-a]indole-10-carboxylic acid dihydrochloride] showed an IC50 of less than 100 nM.
